Results as given in patent publication US6468972B1, “Method to promote, stimulate and/or delay hair loss by a brady kinin antagonist” (Societe L'Oreal S.A., priority 1995, dated 2002).

Columns and labels:
[1] = test system: bradykinin-induced increase in intracellular calcium concentration in keratinocytes of the outer sheath of human hair follicles; test: Effect on the increase in intracellular calcium concentration induced by bradykinin (FURA 2 spectrofluorimetry); format: cell-based; conditions: for Effect on the increase in intracellular calcium concentration induced by bradykinin (in words): summary statement of Example 1; for % Inhibition (1 μM bradykinin): preincubation at least 120 seconds before 1 μM bradykinin, ORS keratinocytes
Description: (§1) a) Culturing Keratinocytes of the Outer Sheath of Human Hair Follicles: This procedure is a variant of that described by YANG et al., J. Invest. Dermatol., 1993, 101 (5), 652-659. After decontamination, a lifting scalp biopsy is treated with dispase in a proportion of 2.4 units/ml for 20 hours at 4° C. The outer sheath of the hair follicles (ORS) is then isolated by dissection, followed by treatment with 0.125% trypsin for 30 minutes at 37° C. The cells thus prepared are then cultured in conditioned Green medium for 6 days. […] The cells are then placed on glass slides 10 mm in diameter and cultured in KGM medium. b) Measurement of the Intracellular Calcium Concentration: The measurements are taken according to the procedures used conventionally by those skilled in the art and which are found, for example, in Cellular Calcium: A Practical Approach, published by J. G. McCormack and P. H. Cobbold; IRL PRESS (1991). The cells are incubated for 1 hour at 37° C. in 10 mM HEPES buffer, 5 mM KCl, 140 mM NaCl, 10 mM glucose, 1 mM MgCl2, 2 mM CaCl2 with 5 μM FURA 2 acetomethyl ester and Pluronic (5 mg/10 ml). After rinsing in the buffer, the slides are placed in an adapted support and the reading is taken using a PERKIN ELMER LS 50 B spectrofluorimeter at 37° C. The cells are preincubated with or without Minoxidil or Minoxidil sulphate, for at least 120 seconds before the injection of 1 μM bradykinin.

[2] = as above; format: cell-based, human; conditions: Homo sapiens, Keratinocyte, preincubation at least 120 seconds before 1 μM bradykinin, ORS keratinocytes
Description: as §1

Compound: Nc1cc(N2CCCCC2)nc(N)[n+]1[O-] [Minoxidil, 2,4-diamino-6-piperidinopyrimidine 3-oxide]
- Effect on the increase in intracellular calcium concentration induced by bradykinin (in words) [1]: inhibit the increase in intracellular calcium concentration induced by bradykinin
- inhibition at 10 µM ([2]; product concentration 10 μM): 0%
- inhibition at 50 µM ([2]; product concentration 50 μM): 15%
- inhibition at 100 µM ([2]; product concentration 100 μM): 25%
- inhibition at 1000 µM ([2]; product concentration 1000 μM): 31%

Compound: Minoxidil sulphate
- % Inhibition (1 μM bradykinin) ([1]; product concentration 10 μM): 0%
- % Inhibition (1 μM bradykinin) ([1]; product concentration 50 μM): 31%
- % Inhibition (1 μM bradykinin) ([1]; product concentration 100 μM): 54%
- % Inhibition (1 μM bradykinin) ([1]; product concentration 1000 μM): 70%
- Effect on the increase in intracellular calcium concentration induced by bradykinin (in words) [1]: inhibit the increase in intracellular calcium concentration induced by bradykinin
